Data published in patent US20250328351A1, “CARBONIC ANHYDRASE INHIBITORS AND ANTIBIOTICS AGAINST MULTIDRUG RESISTANT BACTERIA” (Purdue Research Foundation, priority 2018, published 2025).
≈ marks a conversion by molar mass, not a printed value. Where two headings read alike, the source gives them in different places. Each block holds one compound with its values, some of them ahead of it.

Tests used:
[1] = test system: Enterococcus fecalis Strain MMH594 - NR31975; assay: microbe, parasite or virus in culture; format: cell-based; conditions: Table 7; TSB
Method: (§1) The minimum inhibitory concentrations (MICs) of the compounds and control drugs were determined using the broth microdilution method, according to guidelines outlined by the Clinical and Laboratory Standards Institute (CLSI). Enterococci strains were grown aerobically overnight on tryptone soya agar plates at 37° C., afterwards a bacterial solution equivalent to 0.5 McFarland standard was prepared and diluted in tryptone soy broth (TSB) to achieve a bacterial concentration of about 5×10^5 CFU/mL and seeded in 96-well well plates. Compounds and control drugs were added in the first row of the 96-well plates and serially diluted along the plates. Plates were then incubated aerobically at 37° C. for 18-20 hours. MICs reported in Table 1 are the minimum concentration of the compounds/control drugs that could inhibit completely the visual growth of the bacteria.

[2] = test system: Enterococcus fecalis Strain SF 24397 NR31970; assay: MIC, broth microdilution (CLSI); format: cell-based
Method: as §1
(§2) The minimum inhibitory concentrations (MICs) of CAIs were tested against clinical isolates of vancomycin sensitive and vancomycin resistant Enterococci strains as per the guidelines provided by the Clinical and Laboratory Standards Institute (CLSI). The selected strains of Enterococci were streaked on Tryptic Soy Agar (TSA) plates and let grow for 24 hours at 37° C. Afterwards, a bacterial solution equivalent to 0.5 McFarland standard was prepared and diluted in tryptone soy broth (TSB) or brain heart infusion broth (BHIB) to achieve a bacterial concentration of about 5×10^5 CFU/mL and seeded in 96-well well plates. Compounds and control drugs were added in the first row of the 96-well plates and serially diluted along the plates. Plates were then incubated aerobically at 37° C. for 18-20 hours. MICs reported in Table 5 are the minimum concentration of the compounds/control drugs that could inhibit completely the visual growth of the bacteria.

[3] = test system: Enterococcus faecium Patient #3-1 NR-31912; assay: MIC, broth microdilution (CLSI); format: cell-based; conditions: Table 7; TSB
Method: as §1

[4] = test system: Enterococcus fecalis Strain SF 28073 - NR31972; assay: MIC, broth microdilution (CLSI); format: cell-based; conditions: Table 7; TSB
Method: as §1

[5] = test system: Enterococcus fecalis Strain SF24413 NR31971; assay: MIC, broth microdilution (CLSI); format: cell-based; conditions: Table 7; TSB
Method: as §1

[6] = test system: Enterococcus faecalis S613 HM-334; assay: MIC, broth microdilution (CLSI); format: cell-based; conditions: Enterococcus faecalis
Method: as §1, §2
The minimum inhibitory concentrations (MICs) of CAIs were tested against vancomycin resistant Enterococcus faecalis—S613 HM 334 strain as per the guidelines provided by the Clinical and Laboratory Standards Institute (CLSI). The selected strain was streaked on Tryptic Soy Agar (TSA) plate and let grow for 24 hours at 37° C. […] Compounds and control drugs were added in the first row of the 96-well plates and serially diluted along the plates. Plates were then incubated aerobically at 37° C. for 18-20 hours. MICs reported in table (6) are the minimum concentration of the compounds/control drugs that could inhibit completely the visual growth of the bacteria.

[7] = test system: Bacteroides dorei CL02T12C06 HM-719; assay: MIC against human normal gut microbiota; format: cell-based; conditions: Phocaeicola dorei, 48 h
Method: (§3) Three different bacterial strains were used in this experiment; Bifidobacterium (anaerobic Gram positive bacteria), Bacteroides (anaerobic Gram negative bacteria) and Lactobacillus (microaerophilic Gram positive bacteria). Bifidobacterium and Bacteroides were first grown for 48 hours at 37° C., anaerobically using brain heart infusion supplemented (BHIS) agar (Brain heart infusion agar supplemented with hemin, vitamin K and L-cysteine). Lactobacillus was cultivated on MRS agar and incubated in presence of 5% CO2 for 48 hours at 37° C. Each bacterium was suspended in phosphate buffered saline (PBS) to produce a suspension with optical density that matches 0.5 McFarland standard and diluted in brain heart infusion supplemented broth (for Bifidobacterium and Bacteroides) or in MRS broth (for Lactobacillus) to achieve bacterial concentration of approximately 5×10^5 CFU/ml. Bacteria were then seeded in 96-well plates containing serial dilutions of the compounds and incubated as mentioned previously for 48 hours.

[8] = test system: Bacteroides fragilis CL07T00C01 HM-709; assay: MIC against human normal gut microbiota; format: cell-based; conditions: 48 h
Method: as §3

[9] = test system: Bifidobacterium breve JCP7499 HM 1120; assay: MIC against human normal gut microbiota; format: cell-based; conditions: JCP7499HM1120, 48 h
Method: as §3

[10] = test system: vancomycin-resistant E. faecium; assay: Mouse model of GI colonization by VRE; format: in vivo, C57BL/6 mice; conditions: 10 mg/kg oral gavage for 8 days; feces as early as 3rd day
Excerpt: Feasibility in vivo study: AZM reduces VRE load in the intestines and faeces. The promising feature, and the specific and potent antimicrobial activity of CAIs, prompted us to evaluate the in vivo efficacy of AZM in our established mouse model of GI colonization by enterococci with features that mimic the antibiotic-induced enterococcal expansion observed in humans (Mohammad, H. et al., Int J Antimicrob Agents 2018, 51, 897-904; Abdelkhalek, A, et al., PLoS One 2018, 13, e0199710). We tested AZM (two clinical doses 10 and 20 mg/kg) in female 12-week-old C57BL/6 mice (n=5 mice per group) that were sensitized with ampicillin ([…] in drinking water) for 7 days to reduce the microbiota present in the gastrointestinal tract and colonized with 10^8 CFU/mL of vancomycin-resistant E. faecium.
We thought that the rapid absorption of AZM from the gastrointestinal tract would limit their exposure time to VRE present in the gastrointestinal tract.
Mice were treated for 8 days with 10 mg/kg of drugs by oral gavage.

[11] = format: in vivo; conditions: 200 mg/kg twice daily (400 mg/kg daily) for three days
gut microbiota = test system: gut microbiota; design: species or system C57BL/6 mice; conditions: mouse, in vivo, po, 10 mg/kg
Method: CAIs had no major impact on microbiota composition. An extremely promising and innovative feature of CAIs is their narrow spectrum of activity and their ability to decolonize VRE without harming the microbiome. […] To characterize the impact of CAIs administration on the composition of the gut microbiota we performed the following assay6. Female 12-week-old C57BL/6 mice (n=5 mice per group) were exposed to CAIs by oral gavage for 10 days (10 mg/kg daily). Twenty-four hours after last dose, mice were euthanized and cecal and colon contents were harvested. The microbiome was characterized using 16S rDNA gene sequencing. The microbiotas from treated mice were compared to those from a group of control mice. […] However, at the phylum level, we observed decrease in Firmicutes in CAIs treatment groups and likely due to decrease of enterococci as enterococcus is a large genus of the phylum Firmicutes. The Verrucomicrobia and Bacteroidetes remain constant while other phyla increase to fill the remaining percentage from Firmicute loss. […] Indeed, the use of traditional antibiotics can increase the selective pressure and contribute to the selection of other multi-drug-resistant organisms (Kofteridis D. et al., Int J Infect Dis 2009, 13, e313-315).

SMILES: CN[C@H](CC(C)C)C(=O)N[C@H]1C(=O)N[C@@H](CC(N)=O)C(=O)N[C@H]2C(=O)N[C@H]3C(=O)N[C@H](C(=O)N[C@H](C(=O)O)c4cc(O)cc(O)c4-c4cc3ccc4O)[C@H](O)c3ccc(c(Cl)c3)Oc3cc2cc(c3O[C@@H]2O[C@H](CO)[C@@H](O)[C@H](O)[C@H]2O[C@H]2C[C@](C)(N)[C@H](O)[C@H](C)O2)Oc2ccc(cc2Cl)[C@H]1O [Vancomycin, reference compound]
MIC [1]: 2 µg/mL (≈ 1.38 µM)
MIC ([2]; Table 5, BHIB): 2 µg/mL (≈ 1.38 µM)
MIC ([2]; Table 5, TSB): 2 µg/mL (≈ 1.38 µM)
MIC ([2]; Table 7, TSB): 2 µg/mL (≈ 1.38 µM)
MIC [3]: >64 µg/mL
MIC [4]: >64 µg/mL
MIC [5]: 32 µg/mL (≈ 22.1 µM)
MIC ([6]; S613HM334, Table 1, TSB): > 64 µg/mL
MIC ([6]; S613HM334, Table 5, BHIB): > 128 µg/mL
MIC ([6]; S613HM334, Table 5, TSB): > 128 µg/mL
MIC ([6]; S613HM334, Table 7, TSB): > 64 µg/mL
MIC [7]: 64 µg/mL (≈ 44.2 µM)
MIC [8]: 64 µg/mL (≈ 44.2 µM)
MIC [9]: 8 µg/mL (≈ 5.52 µM)

SMILES: NS(=O)(=O)c1nnc(NCc2ccccc2C(F)(F)F)s1 [analog 8]
reduction of VRE in the feces, cecum and ileum compared with AZM and linezolid [10]: superior to AZM and linezolid
survival [11]: all the mice survived

MIC ([6]; S613HM334, Table 5, BHIB, read-out: MIC): > 128 µg/mL
MIC ([6]; S613HM334, Table 5, TSB, read-out: MIC): 8 µg/mL (≈ 24.7 µM)
MIC ([6]; S613HM334, Table 6, TSB in presence of 4% human serum albumin, read-out: MIC): > 256 µg/mL
taxonomic structure and composition of microbiota (gut microbiota): no major shift or change
SMILES: CCN[C@H]1C[C@H](C)S(=O)(=O)c2sc(S(N)(=O)=O)cc21 [Dorzolamide]
